Here are results for 17 compounds from PubChem BioAssay (NCI).

Common to all, as to test: NCI anticancer screen, dose series, 48 h
Test [1] relates to CCRF-CEM leukemia.
Test [2] has as its system MDA-MB-231 breast.
For test [3], the system named is BT-549 breast.
The subject of test [4] is HS 578T breast.
For test [5], the system named is HCT-116 colon.
The test system of test [6] is UACC-257 melanoma.
The subject of test [7] is UACC-62 melanoma.
Test [8] concerns HL-60(TB) leukemia.
For test [9], the system named is SK-MEL-28 melanoma.
The test system of test [10] is SNB-19 CNS.

Where “and” joins values, the source holds several entries; their conditions need not be identical. Equal entries are not always repeated.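 Protocol summary: plate cells (96-well), add compound at 5 concentrations, incubate 48 h, interpolate endpoints linearly. Abbreviation: GI50, concentration required for 50% inhibition of growth. TGI is the concentration that stops growth completely.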 Where a SMILES comes first, the peptide text is derived from it. The star is where a group is joined. Boc = CC(C)(C)OC(=O)*

Turning to `CC1CCN(C(=O)OCc2nc3nc(Cl)nc(N4CCOCC4)c3[nH]2)CC1`, the GI50 in test [1] is 0.29 µM; in test [2] it was 1.25 µM; in test [3] it was 1.25 µM; in [4] it was 1.76 µM; in test [5], 0.209 µM; in test [6], 1.73 µM. Besides, the GI50 is 1.29 µM in test [7], 0.423 µM in test [8], 1.56 µM in test [9] and 1.55 µM in test [10]. Further, the TGI in test [1] amounted to 0.964 µM; in test [2] it was 2.7 µM; in [3], 3.07 µM; in [4], 4.85 µM; in test [5], 1.16 µM; in test [6] it was 3.76 µM. The TGI in [7] was determined as 2.55 µM; in test [8] it was 3.78 µM; in test [9], 2.94 µM; in [10] it was 2.9 µM.

For `COC(=O)C(C)NC(=O)C(CCSC)NC(=O)C(Cc1ccccc1)NC(=O)OC(C)(C)C` (stereo not drawn) (Boc-Phe-Met-Ala-OMe; configuration not given here), the GI50 in [1] was 2.63 µg/mL; in test [2], 33.2 µg/mL; in test [3] it was 18.3 µg/mL; in test [5], 17.1 µg/mL; in test [7], 28.2 µg/mL; in [8] it was 30.2 µg/mL. For the same compound, in [9], the GI50 is 38.9 µg/mL. Moreover, the TGI was more than 100 µM in test [2]; more than 100 µM in [3]; more than 100 µM in test [4]; more than 100 µM in [6]; more than 100 µM in test [7]; 64.6 µg/mL and > 100 µM in test [8]. For the same compound, the TGI in [9] and in test [10] was more than 100 µM each time.

With `CN(C)CCSc1cc(-c2ccccc2)c2ccccc2n1`, the TGI in test [1] is 33.3 µM; in test [2], 24 µM; in test [3], 24.8 µM; in test [4] it was 21.9 µM; in test [5], 20.4 µM; in test [6], 24.8 µM. Further, the TGI in test [7] is 9.45 µM; in test [8], more than 100 µM; in [9] it was 17.9 µM; in test [10] it was 28.5 µM.

In the case of `COc1ccc(-c2nsc3c2NC(=O)CC3c2cccc(OC)c2)cc1` (stereo not drawn), the GI50 is 2.08 µM in [1]; 1.17 µM in test [2]; 2.87 µM in test [3]; 1.34 µM in test [4]; 0.531 µM in test [5]; 12.9 µM in test [6]. Moreover, the GI50 is 0.865 µM in test [7], 1.35 µM in [8], 10.7 µM in test [9] and 3.47 µM in test [10]. The TGI in test [1] was more than 100 µM; in test [2] it was more than 100 µM; in test [3], more than 100 µM; in test [4] it was 16.9 µM; in [5] it was more than 100 µM; in test [6], more than 100 µM. The TGI is more than 100 µM in test [7], 17.4 µM in test [8], more than 100 µM in [9] and more than 100 µM in test [10].

Take `CC1(Br)Cc2ccccc2C1=O` (stereo not drawn): the GI50 in test [1] is 0.318 µM; in test [5] it was 2.01 µM; in [6] it was 13.3 µM; in [8] it was 0.495 µM. Besides, the TGI in test [1] is 6.75 µM and 1.82 µM; in [2], 22.9 µM; in test [3] it was 5.03 µM; in [4], 38.6 µM; in test [5], 5.02 µM; in test [6] it was 29.2 µM. The TGI in test [7] was 3.63 µM; in test [8], 6.67 µM and 2.35 µM; in test [9] it was 7.68 µM; in test [10] it was 81.8 µM.

For the compound `O=C1c2cccc3cccc(c23)C(=O)N1CCCCCN1CCN(CCCCCOc2ccc(-c3nc4ccc(N5CCOCC5)cc4[nH]3)cc2)CC1`, the GI50 in [1] was 1.31 µM; in [2], 12.6 µM; in test [3], 4.88 µM; in test [4], 21.8 µM; in test [5], 5.06 µM; in [6], 2.15 µM. The GI50 in [7] was 16.1 µM; in test [8], 0.372 µM; in test [9], 13 µM; in test [10] it was more than 46.1 µM. For the same compound, the TGI is 8.97 µM in test [1]; more than 20.4 µM in test [2]; 23.2 µM in test [3]; 45.4 µM in test [4]; more than 100 µM in test [5]; 3.76 µM in [6]. For the same compound, the TGI was more than 57.1 µM in [7], more than 19.9 µM in test [8], 25.7 µM in [9] and more than 60 µM in test [10].

In the case of `CCc1c(Cl)c(C)cc(O)c1Cl`, the TGI in test [1] is 91.7 µM; in test [2] it was more than 100 µM; in [3] it was 42.8 µM; in test [4], 99.7 µM; in test [5], more than 100 µM; in test [6], 99.7 µM. Moreover, the TGI in [7] was more than 100 µM; in [8] it was 40.8 µM; in test [9], more than 100 µM; in test [10], more than 100 µM.

For `Cc1ccc(Nc2oc(-c3ccccc3)nc2[P+](c2ccccc2)(c2ccccc2)c2ccccc2)cc1`, the GI50 in test [1] is 0.547 µM; in test [2], 0.788 µM; in test [3] it was 1.41 µM; in test [4], 1.41 µM; in test [5] it was 0.377 µM; in [6], 0.718 µM. In addition, the GI50 was 0.687 µM in test [7], 0.425 µM in test [8], 1.19 µM in test [9] and 1.04 µM in [10]. For the same compound, the TGI turned out to be 4.77 µM in test [1]; 2.17 µM in test [2]; 2.92 µM in [3]; 3.99 µM in [4]; 1.39 µM in test [5]; 2.75 µM in test [6]. Besides, the TGI in test [7] turned out to be 2.01 µM; in test [8], 1.39 µM; in test [9] it was 2.55 µM; in [10], 2.94 µM.

As for `COc1ccccc1Nc1ncc(-c2ccccc2)o1`, the GI50 was more than 25 µM in test [1]; more than 25 µM in test [2]; more than 25 µM in test [3]; more than 5.12 µM in test [4]; more than 25 µM in test [5]; more than 25 µM in test [6]. The GI50 in test [7], in test [8], in [9] and in test [10] was more than 25 µM in each case. Further, the TGI in [1], in test [2], in test [3], in test [4], in test [5] and in test [6] was more than 25 µM throughout. Also, the TGI in test [7], in test [8], in test [9] and in test [10] was more than 25 µM throughout.

On to `COC(=O)C1=CN(CC2=CC(=O)C(C)=CC2=O)C=C(C(=O)OC)C1c1cccc(OC)c1`, for which the GI50 in test [1] is 2.38 µM; in test [2] it was 13.4 µM; in [3], 8.61 µM; in test [4], 8.66 µM; in [5], 3.63 µM; in test [6], 16.3 µM. Besides, the GI50 in [7] is 13.6 µM; in [8], 4.76 µM; in test [9] it was 25 µM; in test [10] it was 26 µM. Further, the TGI was more than 21.9 µM in test [1]; 31.2 µM in [2]; 36.6 µM in test [3]; 44.9 µM in [4]; 11.1 µM in [5]; 31 µM in test [6]. For the same compound, the TGI was 29.4 µM in [7], more than 100 µM in [8], 79 µM in test [9] and more than 79.2 µM in test [10].

In the case of `C=C1C(=O)OC2CC(C)C(C(O)CC(C)O)=CCC12` (stereo not drawn), the TGI in [1] is 14.3 µM; in [2], 33.8 µM; in test [3], 30.2 µM; in [4] it was 62 µM; in [5], 21.9 µM; in test [6], 29.8 µM. Also, the TGI in [7] is 44.2 µM; in test [8], 13.5 µM; in [9], 23.1 µM; in test [10], more than 100 µM.

As to `CC(C)OC(=O)[C@H](C)NP(=O)(OC[C@H]1O[C@@H](n2ccc(=O)[nH]c2=O)[C@](C)(F)[C@@H]1O)Oc1ccccc1` (stereo partly drawn), the GI50 in test [1], in test [2], in [3], in [4], in [5] and in [6] was more than 100 µM each time. For the same compound, the GI50 in [7], in test [8], in test [9] and in [10] was more than 100 µM throughout. Also, the TGI in test [1], in test [2], in [3], in test [4], in test [5] and in test [6] was more than 100 µM in each case. In addition, the TGI in test [7], in [8], in [9] and in [10] was more than 100 µM in each case.

`O=[N+]([O-])c1ccc(CI)cc1`: the GI50 in [1] was 0.518 µM; in [2], 1.23 µM; in test [3], 3.54 µM; in [4], 3.53 µM; in test [5] it was 0.9 µM; in test [6], 3.47 µM. Further, the GI50 in test [7] is 2.94 µM; in test [8], 2.24 µM; in test [9], 5.15 µM; in test [10], 3.03 µM. Further, the TGI in test [1] is 2.59 µM; in [2], 4.08 µM; in [3], 10.8 µM; in test [4], 24.2 µM; in [5], 2.95 µM; in [6] it was 15.5 µM. Moreover, the TGI worked out at 12.2 µM in test [7], 5.22 µM in test [8], 18.2 µM in test [9] and 14.4 µM in test [10].

`Nc1ccn(C2OC(CO)C(O)C2O)c(=O)n1` (stereo not drawn): the GI50 was < 0.0107 µM and 0.00608 µM and 0.0148 µM in [1]; 7.08 µM in [3]; 0.142 µM in test [5]; 14.4 µM in test [6]; 1.93 µM in test [7]; 0.493 µM in [8]. Moreover, in test [10], the GI50 was 2.19 µM. Moreover, the TGI in test [2], in test [3], in test [4], in test [5], in test [6] and in test [9] was more than 500 µM throughout. In addition, the TGI in test [10] is > 100 µM and 469 µM and > 500 µM.

Consider `CC12CCC3c4ccc(O)cc4CCC3C1C/C(=N\O)C2O` (stereo not drawn), for which the TGI in test [1], in test [2], in test [3], in test [4], in test [5] and in test [6] was more than 100 µM in each case. The TGI in test [7], in test [8], in test [9] and in test [10] was more than 100 µM throughout.

For `O=S(=O)(Nc1ccc(Cl)cc1Cl)c1ccc(-c2cnc(C3CC3)o2)cc1`, the GI50 is 0.509 µM in test [1]; 2.08 µM in test [2]; 0.663 µM in test [3]; 0.365 µM in test [4]; 0.431 µM in test [5]; 10.5 µM in [6]. Further, the GI50 was 0.391 µM in [7], 0.351 µM in test [8], 3.28 µM in test [9] and 0.538 µM in test [10]. Further, the TGI in [1] was more than 100 µM; in test [2] it was 28.4 µM; in [3], 36.3 µM; in test [4], 48.5 µM; in [5] it was more than 65.4 µM; in test [6] it was 60.5 µM. Besides, the TGI in [7] is 26.7 µM; in test [8], 9.41 µM; in test [9], more than 78.8 µM; in test [10], more than 100 µM.

Take `O=C(NNc1ccccc1)C(=O)NNc1ccccc1`: the GI50 is 0.637 µM in [1]; 24.1 µM in [2]; 42.4 µM in test [3]; more than 100 µM in [4]; 6.42 µM in [5]; more than 100 µM in test [6]. Besides, the GI50 in [7] is 0.43 µM; in test [8], 0.627 µM; in test [9], 58.1 µM; in [10] it was more than 100 µM. For the same compound, the TGI in test [1], in [2], in test [3], in test [4], in test [5] and in test [6] was more than 100 µM throughout. For the same compound, the TGI in test [7] is more than 100 µM; in test [8] it was 5.28 µM; in test [9], more than 100 µM; in [10], more than 100 µM.
